From PubChem BioAssay (NCI)
“And” between values parts separate entries of the source, which are not always exact repeats. Equal entries are not always repeated.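 Test compounds were applied to cells in 96-well plates for 48 hours at 5 doses. At the GI50, growth is halved. At the TGI there is no net growth.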

Legend:
Assay in all cases: NCI tumour cell line growth inhibition, 48 h
[1] = system: A549 NSCLC
[2] = system: ACHN renal
[3] = system: UACC-62 melanoma
[4] = system: SN12C renal
[5] = system: HL-60(TB) leukemia
[6] = system: HCT-116 colon
[7] = system: SK-MEL-28 melanoma
[8] = system: HCT-15 colon
[9] = system: HOP-62 NSCLC
[10] = system: CCRF-CEM leukemia

In the case of CCN(CC)CCC(CNc1c2ccc([N+](=O)[O-])cc2nc2cc(OC)c(OC)cc12)c1ccccc1 (centres undefined), the GI50 [1] is reported as 177 nM and 132 nM, the TGI [1] is reported as 0.401 µM and 0.541 µM and the GI50 [2] is reported as 553 nM and 518 nM. The TGI [2] was 2.07 µM and 2.06 µM, the GI50 [3] was 542 nM and 696 nM and the TGI [3] was 1.91 µM and 2.01 µM. The GI50 [4] was 229 nM and 218 nM, the TGI [4] was 1.22 µM and 1.49 µM and the GI50 [5] was 1820 nM and 2400 nM. The TGI [5] was 3.88 µM and 5.12 µM, the GI50 [6] was 89.8 nM and 47.2 nM and the TGI [6] was 1.14 µM and 0.491 µM. The GI50 [7] was 347 nM and 278 nM, the TGI [7] was 1.23 µM and 0.831 µM and the GI50 [8] was 738 nM and 1030 nM. The TGI [8] was 2.14 µM and 3.1 µM, the GI50 [9] was 284 nM and 226 nM and the TGI [9] was 1.23 µM and 1.1 µM. The GI50 [10] was 1190 nM and 1700 nM and the TGI [10] was 7.29 µM and 10.1 µM.
Nc1cccc(-c2nc3sccn3c2-c2ccnc(NCCCNS(=O)(=O)c3ccc(C(F)(F)F)cc3)n2)c1 gave a GI50 [1] of 4100 nM, a TGI [1] of 87.4 µM and a GI50 [2] of 3340 nM. It also gave a TGI [2] of 27.1 µM, a GI50 [3] of 2680 nM and a TGI [3] of 9.71 µM. For the same molecule, the GI50 [4] was 4360 nM, the TGI [4] was > 100 µM and the GI50 [5] was 3280 nM. The TGI [5] was 11.8 µM, the GI50 [6] was 3550 nM and the TGI [6] was 30.5 µM. It also gave a GI50 [7] of 5070 nM, a TGI [7] of 26.7 µM and a GI50 [8] of 3330 nM. The TGI [8] was 29.9 µM, the GI50 [9] was 5160 nM and the TGI [9] was 24.3 µM. The GI50 [10] was 3060 nM and the TGI [10] was 14.4 µM.
Work on COc1ccc(C2=C(Br)C(=O)OC2)cc1Cl yielded a GI50 [1] of 18500 nM, a TGI [1] of 53.6 µM and a GI50 [2] of 19300 nM. For the same molecule, the TGI [2] was 39.9 µM, the GI50 [3] was 20900 nM and the TGI [3] was > 64.4 µM. The GI50 [4] was 22100 nM, the TGI [4] was 52.3 µM and the GI50 [5] was 42800 nM. For the same molecule, the TGI [5] was > 100 µM, the GI50 [6] was 20400 nM and the TGI [6] was 49.5 µM. The GI50 [7] was 30900 nM, the TGI [7] was > 93.1 µM and the GI50 [8] was 19400 nM. The TGI [8] was > 55.1 µM, the GI50 [9] was 44400 nM and the TGI [9] was > 100 µM. For the same molecule, the GI50 [10] was 21900 nM and the TGI [10] was > 68 µM.
CC1C(=O)CCC1C(Sc1ccccc1)(Sc1ccccc1)Sc1ccccc1 (centres undefined) was tested, and the TGI [1] was > 100 µM, the TGI [2] was > 100 µM and the TGI [3] was > 100 µM. The TGI [4] was 91 µM, the TGI [5] was 23.7 µM and the TGI [6] was > 100 µM. For the same molecule, the TGI [7] was > 100 µM, the TGI [8] was > 100 µM and the TGI [9] was > 100 µM. For the same molecule, the TGI [10] was 22.4 µM.
For O=C(/C=C\c1cccc([N+](=O)[O-])c1)c1ccccc1, the GI50 [1] was 21000 nM, the TGI [1] was 68.2 µM and the GI50 [2] was 1900 nM. It also gave a TGI [2] of 3.81 µM, a GI50 [3] of 7930 nM and a TGI [3] of 22 µM. It also gave a GI50 [4] of 3710 nM, a TGI [4] of 14.1 µM and a GI50 [5] of 2910 nM. The TGI [5] was > 100 µM, the GI50 [6] was 1720 nM and the TGI [6] was 5.07 µM. The GI50 [7] was 2170 nM, the TGI [7] was 4.6 µM and the GI50 [8] was 2160 nM. The TGI [8] was 5.95 µM, the GI50 [9] was 19500 nM and the TGI [9] was 46.6 µM. For the same molecule, the GI50 [10] was 568 nM and the TGI [10] was > 100 µM.
With N#CC(NC12CC3CC(CC(C3)C1)C2)c1ccccc1 (centres undefined) the TGI [1] was > 100 µM, the TGI [2] was > 100 µM and the TGI [3] was > 100 µM. The TGI [4] was > 100 µM, the TGI [5] was > 100 µM and the TGI [6] was > 100 µM. For the same molecule, the TGI [7] was > 100 µM, the TGI [8] was > 100 µM and the TGI [9] was > 100 µM. For the same molecule, the TGI [10] was > 100 µM.
With Cc1ccccc1NC(=O)N/C(N)=N/c1nc2ccccc2s1 the GI50 [1] was 87.1 nM, the TGI [1] was > 100 µM and the GI50 [2] was 72.9 nM. For the same molecule, the TGI [2] was > 100 µM, the GI50 [3] was 42.5 nM and the TGI [3] was > 100 µM. For the same molecule, the GI50 [4] was 85.3 nM, the TGI [4] was > 100 µM and the GI50 [5] was 28.5 nM. The TGI [5] was 0.15 µM, the GI50 [6] was 45.6 nM and the GI50 [7] was 3370 nM. The TGI [7] was > 100 µM, the GI50 [8] was 43.4 nM and the TGI [8] was > 100 µM. For the same molecule, the GI50 [9] was 110 nM, the TGI [9] was > 100 µM and the GI50 [10] was 40.2 nM. The TGI [10] was > 100 µM.
